Reference: ChEMBL document CHEMBL1140326, “Dicarboxylic acid azacycle l-prolyl-pyrrolidine amides as prolyl oligopeptidase inhibitors and three-dimensional quantitative structure-activity relationship of the enzyme-inhibitor interactions” (J Med Chem, 2005)

The molecules below were run against Prolyl endopeptidase (Sus scrofa, UniProt P23687) (assay: In vitro inhibitory activity against porcine prolyl oligopeptidase by using 4 mM Suc-Gly-Pro-7-amido-4-methylcoumarin as substrate (pH 7.0) at 30 degree C for 60 min).
Chain of Prolyl endopeptidase (P23687 whole entry): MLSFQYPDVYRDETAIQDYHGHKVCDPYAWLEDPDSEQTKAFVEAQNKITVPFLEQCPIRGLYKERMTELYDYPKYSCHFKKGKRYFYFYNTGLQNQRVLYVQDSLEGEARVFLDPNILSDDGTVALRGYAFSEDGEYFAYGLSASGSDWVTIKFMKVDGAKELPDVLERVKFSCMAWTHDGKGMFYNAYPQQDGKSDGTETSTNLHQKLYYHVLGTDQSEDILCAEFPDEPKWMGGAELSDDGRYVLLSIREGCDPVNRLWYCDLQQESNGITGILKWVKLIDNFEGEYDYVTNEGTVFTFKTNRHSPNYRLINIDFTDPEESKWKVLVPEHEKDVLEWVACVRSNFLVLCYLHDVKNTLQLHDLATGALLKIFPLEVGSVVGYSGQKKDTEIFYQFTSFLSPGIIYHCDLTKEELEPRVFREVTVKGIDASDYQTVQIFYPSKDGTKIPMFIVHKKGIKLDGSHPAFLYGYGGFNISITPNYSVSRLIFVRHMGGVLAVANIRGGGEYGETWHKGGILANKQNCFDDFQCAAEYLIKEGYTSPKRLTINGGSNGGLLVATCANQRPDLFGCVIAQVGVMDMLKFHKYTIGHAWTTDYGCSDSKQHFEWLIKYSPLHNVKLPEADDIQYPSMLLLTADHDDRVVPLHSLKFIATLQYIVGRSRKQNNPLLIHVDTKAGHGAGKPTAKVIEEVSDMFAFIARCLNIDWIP

Row | SMILES | IC50
1 | CC(=O)[C@@H]1CCCN1C(=O)c1cccc(C(=O)N2CCC[C@H]2C(=O)N2CCC[C@H]2C#N)c1 | 0.0042 µM
2 | O=C(CO)[C@@H]1CCCN1C(=O)[C@@H]1CCCN1C(=O)c1cccc(C(=O)N2CCC[C@H]2C(=O)C2CCCC2)c1 | 0.00061 µM
3 | O=C([C@@H]1CCCN1C(=O)c1cccc(C(=O)N2CCC[C@H]2C(=O)N2CCCC2)c1)N1CCCCCC1 | 0.023 µM
4 | CC(=O)[C@@H]1CCCN1C(=O)c1cccc(C(=O)N2CCC[C@H]2C(=O)N2CCC[C@H]2C(=O)CO)c1 | 0.0012 µM
5 | N#C[C@@H]1CCCN1C(=O)[C@@H]1CCCN1C(=O)c1ccccc1C(=O)N1CCCC1 | 1.5 µM
6 | O=C([C@@H]1CCCN1C(=O)CCCCC(=O)N1CCC[C@H]1C(=O)N1CCCC1)N1CCCC1 | 0.068 µM
7 | N#C[C@@H]1CCCN1C(=O)[C@@H]1CCCN1C(=O)CCC(=O)N1CCCCCC1 | 0.00076 µM
8 | O=C(CCC(=O)N1CCC[C@H]1C(=O)N1CCCC1)N1CCCCCC1 | 0.041 µM
9 | N#C[C@@H]1CCCN1C(=O)[C@@H]1CCCN1C(=O)c1cccc(C(=O)N2CCC[C@H]2C(=O)C2CCCC2)c1 | 0.0011 µM
10 | CC(C)(C)OC(=O)N1CCN(C(=O)[C@@H]2CCCN2C(=O)c2cccc(C(=O)N3CCC[C@H]3C(=O)N3CCCC3)c2)CC1 | 0.17 µM
11 | O=C(N[C@@H](Cc1ccccc1)C(=O)N1CCCC1)c1cccc(C(=O)N[C@@H](Cc2ccccc2)C(=O)N2CCCC2)c1 | 0.081 µM
12 | N#C[C@@H]1CCCN1C(=O)[C@@H]1CCCN1C(=O)c1ccccc1 | 0.0031 µM
13 | N#C[C@@H]1CCCN1C(=O)[C@@H]1CCCN1C(=O)c1cccc(C(=O)N2CCC[C@H]2C(=O)C2CCCCC2)c1 | 0.00072 µM
14 | O=C(CCC(=O)N1CCC[C@H]1C(=O)N1CCCC1)N1CCOCC1 | 1.2 µM
15 | N#C[C@@H]1CCCN1C(=O)[C@@H]1CCCN1C(=O)c1cccc(C(=O)N2CCC[C@H]2C(=O)c2ccccc2)c1 | 0.0013 µM
16 | CC(=O)[C@@H]1CCCN1C(=O)c1cccc(C(=O)N2CCC[C@H]2C(=O)N2CCCC2)c1 | 0.065 µM
17 | CC(C)(CC(=O)N1CCCCCC1)CC(=O)N1CCC[C@H]1C(=O)N1CCC[C@H]1C#N | 0.00039 µM
18 | O=C([C@@H]1CCCN1C(=O)CCC(=O)N1CCC[C@H]1C(=O)N1CCCC1)N1CCCC1 | 0.077 µM

Now from value to molecule:

Row | IC50 | SMILES
19 | 0.031 µM | O=C(NCc1ccccc1)[C@@H]1CCCN1C(=O)c1cccc(C(=O)N2CCC[C@H]2C(=O)N2CCCC2)c1
20 | 0.018 µM | O=C(c1ccccc1)[C@@H]1CCCN1C(=O)c1cccc(C(=O)N2CCC[C@H]2C(=O)N2CCCC2)c1
21 | 0.081 µM | O=C([C@@H]1CCCN1C(=O)c1ccc(C(=O)N2CCC[C@H]2C(=O)N2CCCC2)cc1)N1CCCC1
22 | 0.0016 µM | CC(C)C(=O)[C@@H]1CCCN1C(=O)c1cccc(C(=O)N2CCC[C@H]2C(=O)N2CCC[C@H]2C#N)c1
23 | 0.11 µM | O=C(CCC(=O)N1CCC[C@H]1C(=O)N1CCCC1)N1CCCC1
24 | 0.0046 µM | N#C[C@@H]1CCCN1C(=O)[C@@H]1CCCN1C(=O)c1cccc(C(=O)N2CCCCCC2)c1
25 | 0.0012 µM | N#C[C@@H]1CCCN1C(=O)[C@@H]1CCCN1C(=O)CCCC(=O)N1CCCCCC1
26 | 0.0069 µM | N#C[C@@H]1CCCN1C(=O)[C@@H]1CCCN1C(=O)c1cccc(C(=O)N2CCCC2)c1
27 | 0.014 µM | O=C(C1CCCC1)[C@@H]1CCCN1C(=O)c1cccc(C(=O)N2CCC[C@H]2C(=O)N2CCCC2)c1
28 | 0.00022 µM | O=C(CO)[C@@H]1CCCN1C(=O)[C@@H]1CCCN1C(=O)CCCc1ccccc1
29 | 0.0029 µM | N#C[C@@H]1CCCN1C(=O)[C@@H]1CCCN1C(=O)CCC(=O)N1CCCC1
30 | 0.0016 µM | N#C[C@@H]1CCCN1C(=O)[C@@H]1CCCN1C(=O)c1ccc(C(=O)N2CCCC2)cc1
31 | 19 µM | O=C(c1ccccc1C(=O)N1CCC[C@H]1C(=O)N1CCCC1)N1CCCC1
32 | 0.033 µM | O=C([C@@H]1CCCN1C(=O)c1cccc(C(=O)N2CCC[C@H]2C(=O)N2CCNCC2)c1)N1CCCC1
